For this test, the system named is CD8^+ cDCs. The test can be described thus: Antigen cross-presentation by splenic CD8+ cDCs to OT-I CD8+ T cells in vitro. Format: cell-based, mice. To be noted: 200 nM; SUP3 versus Pam3. Here is the method:
Antigen presentation assays were performed as previously described ([38]). Briefly, ovalbumin (OVA) (10 µg/mL; Sigma A7641) pulsed cDCs were stimulated with or without TLR agonists for 4 h. OT-I CD8^+ T cells and OT-II CD4^+ T cells were purified and then labeled by carboxyfluorescein diacetate succinimidyl ester (CFSE) (1 µM; Molecular Probes C34554). CD8^+ cDCs were cocultured with OT-I CD8^+ T cells for 60 h, whereas CD11b^+ cDCs were cocultured with OT-II CD4^+ T cells for 96 h, both in the presence of granulocyte-macrophage colony-stimulating factor (GM-CSF) (20 ng/mL; Peprotech 315-03). Proliferated OT-I or OT-II T cells were defined as diluted CFSE signal analyzed by flow cytometry. The numbers of T cells were counted by AccuCheck counting beads (Molecular Probes PCB100). […] Cells were washed twice with cold medium and analyzed by flow cytometry.
Figure 3 SUP3 facilitated cross-presentation of ovalbumin (OVA) antigen by CD8^+ conventional dendritic cells (cDCs) in vitro. […] Cells were washed and cocultured with carboxyfluorescein diacetate succinimidyl ester (CFSE)-labeled OT-I CD8^+ T cells for 60 h and analyzed by flow cytometry. (A) The dividing OT-I cells were measured by reduced level of CFSE-labeling. […] (B) Absolute numbers of proliferated OT-I T cells were calculated. (C) Interferon-γ from the supernatant of coculture was determined by ELISA 24 h later. […]

Where a SMILES comes first, the peptide text is derived from it. The star is where a group is joined. X1 = CCCCCCCCCCCCCCNC(=O)OC[C@H](C*)OC(=O)NCCCCCCCCCCCCCC; Palmitoyl = CCCCCCCCCCCCCCCC(=O)*

On to `CCCCCCCCCCCCCCCC(=O)N[C@@H](CSC[C@@H](COC(=O)NCCCCCCCCCCCCCC)OC(=O)NCCCCCCCCCCCCCC)C(=O)NCC(=O)N[C@@H](CCCCN)C(=O)N[C@@H](CCCCN)C(=O)N[C@@H](CCCCN)C(=O)O` [SUP3, (2S,5S,8S,14R,18R)-2,5,8-tris(4-aminobutyl)-4,7,10,13,21-pentaoxo-14-palmitamido-18-((tetradecylcarbamoyl)oxy)-20-oxa-16-thia-3,6,9,12,22-pentaazahexatriacontan-1-oic acid] (Palmitoyl-C(X1)GKKK-OH), for which the “enhancement of cross-presentation by CD8+ cDCs in vitro” value was “comparable”.
Then Pam3CSK4 [reference compound], with “comparable”.

For the origin of these results see PMC5318439, “The Novel Toll-Like Receptor 2 Agonist SUP3 Enhances Antigen Presentation and T Cell Activation by Dendritic Cells” (Frontiers in Immunology, 2017).
